We go through three compounds from paper PMC4686643 (Frontiers in Molecular Neuroscience, 2015).

Read-outs that look alike come from different tables or passages of the source. Peptide text beside a SMILES is read from it. * marks the point of attachment. Cbz = O=C(OCc1ccccc1)*

Assay [1] concerns GlyR α1 T162M protein in HEK293 cells. In words: Protein degradation analysis on whole cell lysates (Western blot) with proteasome or lysosome inhibitors. Type of assay: cell-based, human. Conditions: for GlyR protein level after lysosomal block: leupeptin 200 μg/mL. How it is done:
(§1) HEK293 cells transiently expressing GlyR α1 wt or α1 variants were incubated under standard growth conditions with proteasome or lysosome inhibitors for specific time periods (all inhibitors have been obtained from Sigma-Aldrich, St. Louis, MO, USA). Cells were incubated with 1 μM of MG132 for 1, 2, and 4 h. The lysosome inhibitor leupeptin (200 μg/mL) was incubated for 6, 12, and 24 h together with the transfected cells.
(§2) At each time point, media was aspirated and cells were washed twice with PBS followed by incubation with CytoBuster Protein Extraction Reagent (Merck Millipore, Darmstadt, Germany) supplemented with protease inhibitor for 5 min at room temperature. The resulting cell suspension was centrifuged for 5 min at 16.000 g and 4°C resulting in a supernatant containing solubilized proteins.
(§3) Western Blot Analysis—For SDS-PAGE, 11% polyacrylamide gels were freshly prepared, followed by Western blot on nitrocellulose membranes (GE Healthcare, Freiburg, Germany). Membranes were blocked for 1 h with 5% BSA in TBS-T (TBS with 1% Tween 20). Primary antibodies were incubated overnight at 4°C. GlyR α1 wt and GlyR mutants were detected with the pan-α antibody MAb4a (Synaptic Systems, Göttingen, Germany), recognizing an epitope in the N-terminus of the GlyRs (residues 96–105). In biotinylation experiments, cadherin was chosen as loading control detected by the pan-Cadherin antibody (Cell Signaling Technology, Danvers, MA, USA). For lysate analysis, GAPDH served as a loading control (Calbiochem, Darmstadt, Germany). Signals were detected using the ECLplus system (GE Healthcare, Freiburg, Germany).

Assay [2] relates to GlyR α1 wt protein in HEK293 cells. Described as above. In kind it is cell-based, human. As for the experimental part: as §1, §2, §3
In the next assay the target is GlyR α1 T162A (Homo sapiens, UniProt P23415, T190A). Conditions: 100 μM glycine. How it is done: (§4) HEK293 cells were transiently transfected using a modified calcium-phosphate precipitation method, were a mixture of plasmid DNA, CaCl2, and 2x HBS buffer (50 mM HEPES, 12 mM glucose, 10 mM KCl, 280 mM NaCl, 1.5 mM Na2HPO4) was applied onto the cells.
Chain of GlyR α1 T162A (P23415 29-457 T190A): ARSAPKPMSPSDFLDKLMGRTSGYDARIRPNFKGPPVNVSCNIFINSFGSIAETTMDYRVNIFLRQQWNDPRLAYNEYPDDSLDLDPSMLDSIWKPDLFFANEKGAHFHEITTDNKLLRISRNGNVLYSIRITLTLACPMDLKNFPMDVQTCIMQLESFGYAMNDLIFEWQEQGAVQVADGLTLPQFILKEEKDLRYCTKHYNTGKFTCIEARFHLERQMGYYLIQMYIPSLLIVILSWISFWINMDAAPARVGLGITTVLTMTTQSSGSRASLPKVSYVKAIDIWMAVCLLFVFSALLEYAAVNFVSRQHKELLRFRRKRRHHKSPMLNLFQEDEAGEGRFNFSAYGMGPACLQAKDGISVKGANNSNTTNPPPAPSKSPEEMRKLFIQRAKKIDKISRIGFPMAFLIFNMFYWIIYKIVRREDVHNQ
(§5) Maximal current amplifications (Imax) were measured by the patch clamp technique in a whole-cell configuration mode. Current signals were amplified with an EPC-9 amplifier (HEKA, Lambrecht, Germany). […] The extracellular buffer consisted of 137 mM NaCl, 5.4 mM KCl, 1.8 mM CaCl2, 1 mM MgCl2, […], 10 mM HEPES, with a pH adjusted to 7.4 with NaOH. The internal buffer was 120 mM CsCl, 20 mM N(Et)4Cl, 1 mM CaCl2, 3 mM MgCl2, 11 mM EGTA, 10 mM HEPES with a pH adjusted to 7.4 with CsOH. Recording pipettes were fabricated from borosilicate capillaries with an open resistance of about 4 MΩ. Current responses were measured at a holding potential of −60 mV. All experiments were carried out at room temperature. Error bars refer to S.E.M. values.

In another assay the target is GlyR α1 G160S (Homo sapiens, UniProt P23415, G188S). Conditions: 100 μM glycine. How it is done: as §4, §5
Chain of GlyR α1 G160S (P23415 29-457 G188S): as the sequence (P23415 29-457 T190A) above, with G160S, A162T counted along it
The next assay addresses GlyR α1 T162N (Homo sapiens, UniProt P23415, T190N). The following applies: 100 μM glycine. How it is done:
as §4, §5

Another assay has as its target GlyR α1 T162D (Homo sapiens, UniProt P23415, T190D). As for the experimental part:
as §4, §5

Another assay deals with GlyR α1 T162P (Homo sapiens, UniProt P23415, T190P). The following applies: 100 μM glycine. As for the experimental part: as §4, §5
Chain of GlyR α1 T162P (P23415 29-457 T190P): as the sequence (P23415 29-457 T190A) above, with A162P counted along it
In a further assay the target is GlyR α1 G160R (Homo sapiens, UniProt P23415, G188R). Conditions: 100 μM glycine. As for the experimental part:
as §4, §5

Another assay concerns the target GlyR α1 T162M (Homo sapiens, UniProt P23415, T190M). Conditions: 100 μM glycine. As for the experimental part:
as §4, §5

In the next assay the target is GlyR α1 wt (Homo sapiens, UniProt P23415). Conditions: 100 μM glycine. How it is done:
as §4, §5

The test system of the next assay is GlyR α1 T162 mutants. The following applies: glycine 3–10 mM. How it is done:
as §4, §5

The next assay addresses GlyR α1 G160A (Homo sapiens, UniProt P23415, G188A). Conditions: 100 μM glycine. How it is done: as §4, §5

Chain of GlyR α1 T162N (P23415 29-457 T190N): as the sequence (P23415 29-457 T190A) above, with A162N counted along it
Chain of GlyR α1 T162D (P23415 29-457 T190D): as the sequence (P23415 29-457 T190A) above, with A162D counted along it
Chain of GlyR α1 G160R (P23415 29-457 G188R): as the sequence (P23415 29-457 T190A) above, with G160R, A162T counted along it
Chain of GlyR α1 G160A (P23415 29-457 G188A): as the sequence (P23415 29-457 T190A) above, with G160A, A162T counted along it
Chain of GlyR α1 T162M (P23415 29-457 T190M): as the sequence (P23415 29-457 T190A) above, with A162M counted along it
Chain of GlyR α1 wt (P23415 29-457): as the sequence (P23415 29-457 T190A) above, with A162T counted along it

Take `CC(C)C[C@@H](C=O)NC(=O)[C@H](CC(C)C)NC(=O)[C@H](CC(C)C)NC(=O)OCc1ccccc1` [MG132] (Cbz-Leu-Leu-Leu-aldehyde): the “GlyR protein level after proteasomal block” value in assay [1] (1 μM MG132, 2 h, compared to wt) is given as “significant increase”; in assay [2] (1 μM MG132, 2 h), “not affected”.
`NCC(=O)O` [glycine]: the “Irel current, % of maximum current of wt” value on GlyR α1 T162A (T162A) is on record as 4 ± 1%. Further, the “Imax ± SEM” value is recorded as 148 ± 45 pA at GlyR α1 T162A (α1 T162A); 1061 ± 359 pA on GlyR α1 G160S (α1 G160S); 447 ± 96 pA at GlyR α1 T162N (α1 T162N); 10 ± 6 pA at GlyR α1 T162D (α1 T162D, 100 μM glycine); 832 ± 300 pA on GlyR α1 T162P (α1 T162P); 1089 ± 167 pA at GlyR α1 G160R (α1 G160R). The “Imax ± SEM” value on GlyR α1 T162M (α1 T162M) was 309 ± 154 pA; on GlyR α1 wt (wt control of the G160 series), 1571 ± 260 pA; on GlyR α1 wt (wt control of the T162 series), 2916 ± 371 pA; at GlyR α1 G160A (α1 G160A), 1453 ± 197 pA. Also, the “Irel current, % of the wt current” value at GlyR α1 G160S (G160S) worked out at 68 ± 22%; at GlyR α1 T162N (T162N) it was 13 ± 3%; at GlyR α1 T162P (T162P), 29 ± 10%; on GlyR α1 G160R (G160R) it was 69 ± 10%; on GlyR α1 G160A (G160A) it was 92 ± 12%. The “reduction of the wt response” value on GlyR α1 T162N (T162N) is 85%. The “Irel current, % of wt currents” value on GlyR α1 T162D (T162D, 100 μM glycine, measured in two out of five cells) is given as “less than 1%”. Also, the “whole cell maximal currents compared to wt” value at GlyR α1 T162D (T162D, saturating glycine 10 mM) is recorded as “indistinguishable from GlyR α1 wt”. The “Irel current, % of I100μM compared to wt” value on GlyR α1 T162M (T162M) worked out at 11 ± 5%. In addition, the “functionality compared to wt receptors” value with GlyR α1 T162 mutants is on record as “indistinguishable from wt receptors”.
On to `CC(=O)N[C@@H](CC(C)C)C(=O)N[C@@H](CC(C)C)C(=O)N[C@H](C=O)CCCNC(=N)N` [leupeptin], for which the “GlyR protein level after lysosomal block” value was “did not show any differences” in assay [1] (6 h); “reduced protein levels” in assay [1] (12 h, in contrast to wt); “accumulations” in [2] (leupeptin 200 μg/mL, 12 h).
